Like-named read-outs stand apart in the source and are kept apart here.
System: Peripheral human blood mononuclear cells PBMCs
Details: for Cytokine Profile: after 7 days
Experimental: Peripheral human blood mononuclear cells PBMCs, which is a collection of white blood cells comprising about 40% T-cells, were stressed by contact with aqueous solutions of hydrogen peroxide, of various concentrations, for 20 minutes. Their immediate survival was measured, along with their immediate phytohaemagglutinin (PHA) response. Then their survival after 24 hours was measured, followed by their PHA response (tritiated thymidine uptake following mitogenic stimulation with PHA) and cytokine profile after 7 days.

OO [Example H2O2, hydrogen peroxide]
24 hr survival % (100 μmole/L H2O2, 20 minutes): 100%
Immediate PHA response (100 μmole/L H2O2, 20 minutes): 2000
Immediate survival % (100 μmole/L H2O2, 20 minutes): 80-90%
Cytokine Profile (100 μmole/L H2O2, 20 minutes): IFN↓
24 hr survival % (300 μmole/L H2O2, 20 minutes): 50%
Immediate PHA response (300 μmole/L H2O2, 20 minutes): 2000
Immediate survival % (300 μmole/L H2O2, 20 minutes): 80-90%
Cytokine Profile (300 μmole/L H2O2, 20 minutes): IFN↓
24 hr survival % (1 mmole/L H2O2, 20 minutes): 40%
Immediate PHA response (1 mmole/L H2O2, 20 minutes): 400
Immediate survival % (1 mmole/L H2O2, 20 minutes): 80-90%
Cytokine Profile (1 mmole/L H2O2, 20 minutes): IFN↓
24 hr survival % (3 mmole/L H2O2, 20 minutes): 40%
Immediate PHA response (3 mmole/L H2O2, 20 minutes): 400
Immediate survival % (3 mmole/L H2O2, 20 minutes): 80-90%
Cytokine Profile (3 mmole/L H2O2, 20 minutes): IFN↓

Source: patent publication US20010028879A1, “Inhibition of graft versus host disease” (priority 1998, published 2001)
